Results published in patent US20170049688A1, “Herbal Combinations For Treating Psoriasis” (Sirbal Ltd., priority 2015, published 2017).
Where two headings read alike, the source gives them in different places.

Assays:
[1] = cited from earlier work
[2] = cited from earlier work; remark: listed apart in the source
[3] = cited from earlier work; remark: listed apart in the source
HT29 colon cancer cells = experiment: Viability of HT29 tumor cells (PI staining); format: cell-based; settings: 24-hour exposure
Experimental: (§1) In another example, the effect of CXCR4 antagonists on the survival of NB4, HL60, Jurkat leukemic cells and HT29 colon cancer and prostate tumor cells was examined.
(§2) Following the incubation, the cells were stained with propidium iodide (PI) (Sigma, St. Louis, Mo.) and percent of viable PI-negative cells in culture was determined by FACScalibur analysis (Becton Dickinson Immunocytometry Systems), using CellQuest software.
as §2

murine melanoma = settings: 5 mg/kg; cited from earlier work
[4] = system: NB4, HL60, Jurkat leukemic cells; experiment: Viability of leukemic cells (PI staining, FACS); format: cell-based, human; settings: 24 hours
Experimental: as §1, §2, §2

[5] = system: mammary carcinoma of mice; settings: intraperitoneal, 75 mg/kg; cited from earlier work
mice = settings: cited from earlier work
thymidine kinase = settings: colon cancer cells; cited from earlier work
thymidylate synthase = settings: colon cancer cells; cited from earlier work
[6] = system: hemolytic plaque forming cells in the spleens of mice; settings: cited from earlier work
[7] = system: central stimulation in mice and rats; settings: oral administration; cited from earlier work

For O=C1c2cc(CO)cc(O)c2C(=O)c2c(OC3OC(CO)C(O)C(O)C3O)cccc21 (centres unmarked) [Aloe-emodin-8-glycoside], the “ED50 (oral purgative)” value [1] is given as 71.6 mg/kg.

In the case of O=C1c2cccc(O)c2C(=O)c2c(O)cc(CO)cc21 [Aloe-emodin], the half-life [2] is given as “about 78 min”.

In the case of CC1=CCC(C(C)(C)O)CC1 (stereo not drawn) [Alpha-terpineol], the half life [2] is given as “about 1.245 hours”.

For OCC1=C[C@@H](O)[C@@H]2C=CO[C@@H](O[C@@H]3O[C@H](CO)[C@@H](O)[C@H](O)[C@H]3O)[C@H]12 [Aucubin], the half life [2] is given as “about 42.5 minutes”.

In the case of Cc1ccc(C(C)C)cc1O [Carvacrol], the half life [2] is given as “about 1.29 hours”.

In the case of CCC(=O)O[C@]1(C(=O)CCl)[C@@H](C)C[C@H]2[C@@H]3CCC4=CC(=O)C=C[C@]4(C)[C@@]3(F)[C@@H](O)C[C@@]21C [Clobetasol propionate], the solubility in water [3] is given as “insoluble in water”.

For C[C@H]1O[C@@H](O[C@H]2[C@@H](O)C[C@H](O[C@H]3[C@@H](O)C[C@H](O[C@H]4CC[C@@]5(C)[C@H](CC[C@@H]6[C@@H]5C[C@@H](O)[C@]5(C)[C@@H](C7=CC(=O)OC7)CC[C@]65O)C4)O[C@@H]3C)O[C@@H]2C)C[C@H](O)[C@@H]1O [Digoxin, reference compound], the “effect on HT29 tumor cells” value (HT29 colon cancer cells) is given as “partial however significant effect” and the half life [2] is given as “around 36 hours”.

For Cc1cc(O)c2c(c1)C(=O)c1cc(O)cc(O)c1C2=O [Emodin], the “inhibition rate against murine melanoma” value (murine melanoma) is given as 73%, the “effect on HT29 tumor cells” value (HT29 colon cancer cells) is given as “partial however significant effect” and the “concentrations inhibiting the growth of leukemic cells” value [4] is given as “more than 5 microgram/ml”. The “inhibition against mammary carcinoma” value [5] was 45%, the half-life [2] was “approximately 227 min” and the LD50 (mice) was 0.56 g/k″g. For the same compound, the “ED50 (oral purgative)” value [1] was >500 mg/kg.

For CC(C)=CCC/C(C)=C/CO [Geraniol], the “reduction of thymidine kinase expression” value (thymidine kinase) is listed as 2 fold and the “reduction of thymidylate synthase expression” value (thymidylate synthase) is listed as 2 fold.

For O=c1cc(-c2ccc(O)c(O)c2)oc2cc(O)cc(O)c12 [Luteolin], the half life [2] is listed as “about 1.2 hours”.

In the case of COc1cc(O)c2c(c1)C(=O)c1cc(C)cc(O)c1C2=O [Physcion], the “ED50 (oral purgative)” value [1] is listed as >500 mg/kg.

In the case of COc1ccc(/C=C/c2cc(O)cc(O[C@@H]3O[C@H](CO)[C@@H](O)[C@H](O)[C@H]3O)c2)cc1O [Rhapontin], the half life [2] is given as “about 23.5 minutes”.

For O=C(O)c1cc(O)c2c(c1)C(=O)c1cccc(O[C@@H]3O[C@H](CO)[C@@H](O)[C@H](O)[C@H]3O)c1C2=O [Rhein-8-glucoside], the “ED50 (oral purgative)” value [1] is given as 20.0 mg/kg.

For O=C(O)c1cc(O)c2c(c1)C(=O)c1cccc(O)c1C2=O [Rhein], the half-life [2] is listed as “about 205 min”.

For O=C(O)c1cc(O)c2c(c1)[C@H]([C@H]1c3cc(C(=O)O)cc(O)c3C(=O)c3c(O[C@@H]4O[C@H](CO)[C@@H](O)[C@H](O)[C@H]4O)cccc31)c1cccc(O[C@@H]3O[C@H](CO)[C@@H](O)[C@H](O)[C@H]3O)c1C2=O [Sennoside A], the “ED50 (oral purgative)” value [1] is listed as 13.5 mg/kg.

For O=C(O)c1cc(O)c2c(c1)[C@@H]([C@H]1c3cc(C(=O)O)cc(O)c3C(=O)c3c(O[C@@H]4O[C@H](CO)[C@@H](O)[C@H](O)[C@H]4O)cccc31)c1cccc(O[C@@H]3O[C@H](CO)[C@@H](O)[C@H](O)[C@H]3O)c1C2=O [Sennoside B], the “ED50 (oral purgative)” value [1] is given as 13.9 mg/kg.

For O=C(O)c1cc(O)c2c(c1)[C@H]([C@H]1c3cc(CO)cc(O)c3C(=O)c3c(O[C@@H]4O[C@H](CO)[C@@H](O)[C@H](O)[C@H]4O)cccc31)c1cccc(O[C@@H]3O[C@H](CO)[C@@H](O)[C@H](O)[C@H]3O)c1C2=O [Sennoside C], the “ED50 (oral purgative)” value [1] is given as 13.3 mg/kg.

In the case of O=C(O)c1cc(O)c2c(c1)[C@H]([C@@H]1c3cc(CO)cc(O)c3C(=O)c3c(O[C@@H]4O[C@H](CO)[C@@H](O)[C@H](O)[C@H]4O)cccc31)c1cccc(O[C@@H]3O[C@H](CO)[C@@H](O)[C@H](O)[C@H]3O)c1C2=O [Sennoside D], the “ED50 (oral purgative)” value [1] is listed as 13.8 mg/kg.

In the case of O=C(O)C(=O)OC[C@H]1O[C@@H](Oc2cccc3c2C(=O)c2c(O)cc(C(=O)O)cc2[C@@H]3[C@H]2c3cc(C(=O)O)cc(O)c3C(=O)c3c(O[C@@H]4O[C@H](CO)[C@@H](O)[C@H](O)[C@H]4O)cccc32)[C@H](O)[C@@H](O)[C@@H]1O [Sennoside E], the “ED50 (oral purgative)” value [1] is given as 13.5 mg/kg.

In the case of O=C(O)C(=O)OC[C@H]1O[C@@H](Oc2cccc3c2C(=O)c2c(O)cc(C(=O)O)cc2[C@@H]3[C@@H]2c3cc(C(=O)O)cc(O)c3C(=O)c3c(O[C@@H]4O[C@H](CO)[C@@H](O)[C@H](O)[C@H]4O)cccc32)[C@H](O)[C@@H](O)[C@@H]1O [Sennoside F], the “ED50 (oral purgative)” value [1] is listed as 16.1 mg/kg.

For COc1cc(C(=O)O)ccc1O [Vanillic acid], the half life [2] is given as “about 10.552 hours”.

For C[C@@H]1O[C@@H](O[C@@H]2[C@@H](O)[C@H](OCCc3ccc(O)c(O)c3)O[C@H](CO)[C@H]2OC(=O)/C=C/c2ccc(O)c(O)c2)[C@H](O)[C@H](O)[C@H]1O [acetoside], the “suppression of hemolytic plaque forming cells” value (“suppression” for short) ([6]; oral dose of 100 mg/kg) is given as 18%.

For O=C(/C=C/c1ccc(O)c(O)c1)O[C@@H]1C[C@](O)(C(=O)O)C[C@@H](O)[C@H]1O [chlorogenic acid], the “potency of central stimulation relative to caffeine” value [7] is listed as 1/6.

For O=P1(N(CCCl)CCCl)NCCCO1 (centres unmarked) [cyclophosphamide, reference compound], the “suppression” value ([6]; intraperitoneal dose of 30 mg/kg) is given as 52.5%.

In the case of CC[C@H](CC[C@@H](C)[C@H]1CC[C@H]2[C@@H]3CC=C4C[C@@H](O)CC[C@]4(C)[C@H]3CC[C@]12C)C(C)C [β-sitosterol], the half life [2] is given as “about 0.966 hours”.

In the case of Emodin monoglucoside, the “ED50 (oral purgative)” value [1] is listed as 103.6 mg/kg.

For jionoside B, the “suppression” value ([6]; oral dose of 100 mg/kg) is listed as 36%.
